# Experimental data taken from ChEMBL document CHEMBL1134090, “Esters of 2-(1-hydroxyalkyl)-1,4-dihydroxy-9,10-anthraquinones with melphalan as multifunctional anticancer agents” (Bioorg Med Chem Lett, 2001).
# What was measured:
# [1] = Antitumor activity against S-180 cells after i.p. administration in mice up to 7 days at a dose of 16 umol/kg; assay type: functional, Mus musculus
# [2] = Cytotoxicity against L-1210 cells; assay type: cell-based, L1210; conditions: mouse, read-out: ED50 (the source's name)
# Mus musculus = species: Mus musculus; assay: Ratio of number of mice that survived after 50 days among eight mice tested; assay type: functional
SMILES,T/C [1],CC50 [2],Survival ratio (Mus musculus)
CCCC(O)c1cc(O)c2c(c1O)C(=O)c1ccccc1C2=O (stereo not drawn),125%,10.2 mg/L,–
CCCCC(O)c1cc(O)c2c(c1O)C(=O)c1ccccc1C2=O (stereo not drawn),110%,23.7 mg/L,–
O=C1c2ccccc2C(=O)c2c(O)c(CO)cc(O)c21,125%,15 mg/L,–
CCCCCCC(OC(=O)C(Cc1ccc(N(CCCl)CCCl)cc1)NC=O)c1cc(O)c2c(c1O)C(=O)c1ccccc1C2=O (stereo not drawn),210%,4.5 mg/L,0
N[C@@H](Cc1ccc(N(CCCl)CCCl)cc1)C(=O)O [MELPHALAN],225%,0.89 mg/L,3
O=CNC(Cc1ccc(N(CCCl)CCCl)cc1)C(=O)OCc1cc(O)c2c(c1O)C(=O)c1ccccc1C2=O (stereo not drawn),265%,0.086 mg/L,3
CCCCCC(OC(=O)C(Cc1ccc(N(CCCl)CCCl)cc1)NC=O)c1cc(O)c2c(c1O)C(=O)c1ccccc1C2=O (stereo not drawn),230%,3.1 mg/L,1
CCC(OC(=O)C(Cc1ccc(N(CCCl)CCCl)cc1)NC=O)c1cc(O)c2c(c1O)C(=O)c1ccccc1C2=O (stereo not drawn),245%,0.2 mg/L,3
CCCCCCC(O)c1cc(O)c2c(c1O)C(=O)c1ccccc1C2=O (stereo not drawn),115%,60 mg/L,–
CCCC(OC(=O)C(Cc1ccc(N(CCCl)CCCl)cc1)NC=O)c1cc(O)c2c(c1O)C(=O)c1ccccc1C2=O (stereo not drawn),240%,0.97 mg/L,3
CCCCC(OC(=O)C(Cc1ccc(N(CCCl)CCCl)cc1)NC=O)c1cc(O)c2c(c1O)C(=O)c1ccccc1C2=O (stereo not drawn),230%,0.4 mg/L,2
CCC(O)c1cc(O)c2c(c1O)C(=O)c1ccccc1C2=O (stereo not drawn),135%,7.2 mg/L,–
CC(O)c1cc(O)c2c(c1O)C(=O)c1ccccc1C2=O (stereo not drawn),139%,1.9 mg/L,–
CCCCCCCC(O)c1cc(O)c2c(c1O)C(=O)c1ccccc1C2=O (stereo not drawn),103%,80 mg/L,–
CC(OC(=O)C(Cc1ccc(N(CCCl)CCCl)cc1)NC=O)c1cc(O)c2c(c1O)C(=O)c1ccccc1C2=O (stereo not drawn),272%,0.12 mg/L,6
CCCCCCCC(OC(=O)C(Cc1ccc(N(CCCl)CCCl)cc1)NC=O)c1cc(O)c2c(c1O)C(=O)c1ccccc1C2=O (stereo not drawn),205%,5.9 mg/L,0
CCCCCC(O)c1cc(O)c2c(c1O)C(=O)c1ccccc1C2=O (stereo not drawn),108%,58 mg/L,–
